Laboratory results: US10800791B2, “Triazole ACC inhibitors and uses thereof” (Gilead Apollo, LLC, priority 2015, dated 2020)
≈ marks a conversion by molar mass, not a printed value. Like-named read-outs stand apart in the source and are kept apart here.

How the values were obtained:
[1] = system: C. krusei; assay: Antifungal Activity Assay (broth microtiter MIC), C. krusei; assay type: cell-based, Candida krusei; settings: Pichia kudriavzevii, ATCC6258, 48 h
Procedure, shortened: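 Colonies from 24 h Sabouraud dextrose agar plates (35° C) are suspended in RPMI 1640+MOPS and diluted to give 2.5×10^3 CFU/mL in the wells. Plates are set up per CLSI M27-A3. Visual MIC is recorded at 48 h.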

[2] = system: Collectotrichum graminicola (Cg); assay: Growth inhibition assay of fungal pathogens, Cg; assay type: cell-based; settings: 48 h
Procedure, shortened: (§1)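 Spores from sub-cultured plates were diluted in 17% V8 liquid medium and exposed to compound from DMSO stocks at final concentrations of 50, 10 and 2 ppm or 2, 0.4 and 0.08 ppm. OD600 and visual ratings at 48 h were compared with the 2% DMSO control to give percent growth inhibition.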

[3] = system: Phytophthora capsici (Pc); assay: Growth inhibition assay of fungal pathogens, Pc; assay type: cell-based; settings: 48 h
Procedure, shortened: as §1

[4] = read-out: MIC, C. krusei ATCC 6258, Table 3a, 3 replicates, MIC recorded at 48 h
[5] = read-out: MIC, C. krusei ATCC 6258, Table 3b (additional results), 3 replicates, MIC recorded at 48 h
[6] = read-out: Concentration at 90% Inhibition Cg, Collectotrichum graminicola, growth inhibition at 48 hours vs 2% DMSO control
[7] = read-out: Concentration at 90% Inhibition Cg, Collectotrichum graminicola, growth inhibition vs 2% DMSO control at 48 hours
[8] = read-out: Concentration at 90% Inhibition Pc, Phytophthora capsici, growth inhibition at 48 hours vs 2% DMSO control
[9] = read-out: Concentration at 90% Inhibition Pc, Phytophthora capsici, growth inhibition vs 2% DMSO control at 48 hours
[10] = Table 3a, ATCC 6258, 3 replicates, MIC recorded at 48 h, read-out: MIC, C. krusei ATCC 6258
[11] = Table 3b (additional results), ATCC 6258, 3 replicates, MIC recorded at 48 h, read-out: MIC, C. krusei ATCC 6258
[12] = Collectotrichum graminicola, growth inhibition at 48 hours vs 2% DMSO control, read-out: Concentration at 90% Inhibition Cg
[13] = Collectotrichum graminicola, growth inhibition vs 2% DMSO control at 48 hours, read-out: Concentration at 90% Inhibition Cg
[14] = growth inhibition at 48 hours vs 2% DMSO control, read-out: Concentration at 90% Inhibition Pc
[15] = growth inhibition vs 2% DMSO control at 48 hours, read-out: Concentration at 90% Inhibition Pc

| Compound | MIC [1, 4] | MIC [1, 5] | IC90 [2, 6] | IC90 [2, 7] | IC90 [3, 8] | IC90 [3, 9] | MIC [1, 10] | MIC [1, 11] | IC90 [2, 12] | IC90 [2, 13] | IC90 [3, 14] | IC90 [3, 15] |
| --- | --- | --- | --- | --- | --- | --- | --- | --- | --- | --- | --- | --- |
| COc1ccc(F)cc1[C@H](Cn1c(=O)n(C(C)(C)C(=O)NC(C)C)c(=O)c2c(C)c(-n3nccn3)sc21)OC[C@@H](C)O [Compound I-45, 2-(1-((R)-2-(5-fluoro-2-methoxyphenyl)-2-((R)-2-hydroxypropoxy)ethyl)-5-methyl-2,4-dioxo-6-(2H-1,2,3-triazol-2-yl)-1,4-dihydro-thieno[2,3-d]pyrimidin-3(2H)-yl)-N-isopropyl-2-methylpropanamide] | 0.25 to 1 µg/mL (≈ 0.415 to 1.66 µM) | 1.01 to 2 µg/mL (≈ 1.68 to 3.32 µM) | 0.4 µg/mL (≈ 0.664 µM) | 0.4 µg/mL (≈ 0.664 µM) | 2 µg/mL (≈ 3.32 µM) | 10 µg/mL (≈ 16.6 µM) | – | – | – | – | – | – |
| COc1ccc(F)cc1[C@H](Cn1c(=O)n(C(C)(C)C(=O)N2CCCC2)c(=O)c2c(C)c(-n3nccn3)sc21)OC[C@@H](C)O [Compound I-46, 1-((R)-2-(5-fluoro-2-methoxyphenyl)-2-((R)-2-hydroxypropoxy)ethyl)-5-methyl-3-(2-methyl-1-oxo-1-(pyrrolidin-1-yl)propan-2-yl)-6-(2H-1,2,3-triazol-2-yl)thieno[2,3-d]pyrimidine-2,4(1H,3H)-dione] | – | – | – | – | – | – | 0.25 to 1 µg/mL (≈ 0.407 to 1.63 µM) | 2.01 to 4 µg/mL (≈ 3.27 to 6.51 µM) | 0.4 µg/mL (≈ 0.651 µM) | 0.4 µg/mL (≈ 0.651 µM) | > 50 µg/mL | > 50 µg/mL |
| COc1ccc(F)cc1[C@H](Cn1c(=O)n(C(C)(C)C(=O)NC(C)C)c(=O)c2c(C)c(-n3nccn3)sc21)OC[C@H](C)O [Compound I-47, 2-(1-((R)-2-(5-fluoro-2-methoxyphenyl)-2-((S)-2-hydroxypropoxy)ethyl)-5-methyl-2,4-dioxo-6-(2H-1,2,3-triazol-2-yl)-1,4-dihydro-thieno[2,3-d]pyrimidin-3(2H)-yl)-N-isopropyl-2-methylpropanamide] | 0.06 to 0.24 µg/mL (≈ 0.0996 to 0.398 µM) | 1.01 to 2 µg/mL (≈ 1.68 to 3.32 µM) | 0.4 µg/mL (≈ 0.664 µM) | 0.4 µg/mL (≈ 0.664 µM) | > 50 µg/mL | > 50 µg/mL | – | – | – | – | – | – |
| COc1ccc(F)cc1[C@H](Cn1c(=O)n(C(C)(C)C(=O)N2CCCC2)c(=O)c2c(C)c(-n3nccn3)sc21)OC[C@H](C)O [Compound I-48, 1-((R)-2-(5-fluoro-2-methoxyphenyl)-2-((S)-2-hydroxy-propoxy)ethyl)-5-methyl-3-(2-methyl-1-oxo-1-(pyrrolidin-1-yl)propan-2-yl)-6-(2H-1,2,3-triazol-2-yl)thieno[2,3-d]pyrimidine-2,4(1H,3H)-dione] | – | – | – | – | – | – | 1.1 to 2 µg/mL (≈ 1.79 to 3.25 µM) | 2.01 to 4 µg/mL (≈ 3.27 to 6.51 µM) | 0.4 µg/mL (≈ 0.651 µM) | 0.4 µg/mL (≈ 0.651 µM) | > 50 µg/mL | > 50 µg/mL |
| COc1ccc(F)cc1[C@H](Cn1c(=O)n(C(C)(C)C(=O)N(C)C)c(=O)c2c(C)c(-n3nccn3)sc21)OC(C)C [Compound I-49, (R)-2-(1-(2-(5-fluoro-2-methoxyphenyl)-2-isopropoxy-ethyl)-5-methyl-2,4-dioxo-6-(2H-1,2,3-triazol-2-yl)-1,4-dihydrothieno[2,3-d]pyrimi-din-3(2H)-yl)-N,N,2-trimethylpropanamide] | 2.1 to 4 µg/mL (≈ 3.67 to 6.98 µM) | 1.01 to 2 µg/mL (≈ 1.76 to 3.49 µM) | 10 µg/mL (≈ 17.5 µM) | > 50 µg/mL | > 50 µg/mL | > 50 µg/mL | – | – | – | – | – | – |
| CNC(=O)C(C)(C)n1c(=O)c2c(C)c(-n3nccn3)sc2n(C[C@H](OC(C)C)c2cc(F)ccc2OC)c1=O [Compound I-50, (R)-2-(1-(2-(5-fluoro-2-methoxyphenyl)-2-isopropoxy-ethyl)-5-methyl-2,4-dioxo-6-(2H-1,2,3-triazol-2-yl)-1,4-dihydrothieno[2,3-d]pyrimidin-3(2H)-yl)-N,2-dimethylpropanamide] | 1.1 to 2 µg/mL (≈ 1.97 to 3.58 µM) | 0.25 to 1 µg/mL (≈ 0.448 to 1.79 µM) | 2 µg/mL (≈ 3.58 µM) | 10 µg/mL (≈ 17.9 µM) | > 50 µg/mL | > 50 µg/mL | – | – | – | – | – | – |
| COc1ccc(F)cc1[C@H](Cn1c(=O)n(C(C)(C)C(=O)N2CC=CC2)c(=O)c2c(C)c(-n3nccn3)sc21)OC(C)C [Compound I-51, (R)-3-(1-(2,5-dihydro-1H-pyrrol-1-yl)-2-methyl-1-oxopropan-2-yl)-1-(2-(5-fluoro-2-methoxyphenyl)-2-isopropoxyethyl)-5-methyl-6-(2H-1,2,3-triazol-2-yl)thieno[2,3-d]pyrimidine-2,4(1H,3H)-dione] | – | – | – | – | – | – | 0.25 to 1 µg/mL (≈ 0.419 to 1.68 µM) | 0.25 to 1 µg/mL (≈ 0.419 to 1.68 µM) | 0.08 µg/mL (≈ 0.134 µM) | 0.08 µg/mL (≈ 0.134 µM) | > 50 µg/mL | > 50 µg/mL |
| COc1ccc(F)cc1[C@H](Cn1c(=O)n(C(C)(C)C(=O)NCC#N)c(=O)c2c(C)c(-n3nccn3)sc21)OC(C)C [Compound I-52, (R)—N-(cyanomethyl)-2-(1-(2-(5-fluoro-2-methoxyphenyl)-2-isopropoxyethyl)-5-methyl-2,4-dioxo-6-(2H-1,2,3-triazol-2-yl)-1,4-dihydro-thieno[2,3-d]pyrimidin-3(2H)-yl)-2-methylpropanamide] | 2.1 to 4 µg/mL (≈ 3.6 to 6.85 µM) | 0.25 to 1 µg/mL (≈ 0.428 to 1.71 µM) | 10 µg/mL (≈ 17.1 µM) | > 50 µg/mL | > 50 µg/mL | > 50 µg/mL | – | – | – | – | – | – |
| Cc1c(-n2nccn2)sc2c1c(=O)n(C(C)(C)C(=O)NC(C)C)c(=O)n2C[C@H](OC(C)C)c1cc(F)ccc1OCCO [Compound I-53, (R)-2-(1-(2-(5-fluoro-2-(2-hydroxyethoxy)phenyl)-2-isopropoxyethyl)-5-methyl-2,4-dioxo-6-(2H-1,2,3-triazol-2-yl)-1,4-dihydrothieno[2,3-d]pyrimidin-3(2H)-yl)-N-isopropyl-2-methylpropanamide] | – | – | – | – | – | – | 0.25 to 1 µg/mL (≈ 0.405 to 1.62 µM) | 0.06 to 0.249 µg/mL (≈ 0.0973 to 0.404 µM) | 0.4 µg/mL (≈ 0.649 µM) | 0.4 µg/mL (≈ 0.649 µM) | > 50 µg/mL | > 50 µg/mL |
| COCCOc1ccc(F)cc1[C@H](Cn1c(=O)n(C(C)(C)C(=O)NC(C)C)c(=O)c2c(C)c(-n3nccn3)sc21)OC(C)C [Compound I-54, (R)-2-(1-(2-(5-fluoro-2-(2-methoxyethoxy)phenyl)-2-isopropoxyethyl)-5-methyl-2,4-dioxo-6-(2H-1,2,3-triazol-2-yl)-1,4-dihydrothieno[2,3-d]pyrimidin-3(2H)-yl)-N-isopropyl-2-methylpropanamide] | – | – | – | – | – | – | 0.25 to 1 µg/mL (≈ 0.396 to 1.59 µM) | 0.25 to 1 µg/mL (≈ 0.396 to 1.59 µM) | 0.4 µg/mL (≈ 0.634 µM) | 0.4 µg/mL (≈ 0.634 µM) | > 50 µg/mL | > 50 µg/mL |
| Cc1c(-n2nccn2)sc2c1c(=O)n(C(C)(C)C(=O)NC(C)C)c(=O)n2C[C@H](OC(C)C)c1cc(F)ccc1OCC1COC1 [Compound I-55, (R)-2-(1-(2-(5-fluoro-2-(oxetan-3-ylmethoxy)phenyl)-2-isopropoxyethyl)-5-methyl-2,4-dioxo-6-(2H-1,2,3-triazol-2-yl)-1,4-dihydrothieno[2,3-d]pyrimidin-3(2H)-yl)-N-isopropyl-2-methylpropanamide] | – | – | – | – | – | – | 0.25 to 1 µg/mL (≈ 0.389 to 1.56 µM) | 1.01 to 2 µg/mL (≈ 1.57 to 3.11 µM) | 0.4 µg/mL (≈ 0.622 µM) | 0.4 µg/mL (≈ 0.622 µM) | > 50 µg/mL | > 50 µg/mL |
| Cc1c(-n2nccn2)sc2c1c(=O)n(C(C)(C)C(=O)NC(C)C)c(=O)n2C[C@H](OC(C)C)c1cc(F)ccc1OCC#N [Compound I-56, (R)-2-(1-(2-(2-(cyanomethoxy)-5-fluorophenyl)-2-isopropoxyethyl)-5-methyl-2,4-dioxo-6-(2H-1,2,3-triazol-2-yl)-1,4-dihydrothieno[2,3-d]pyrimidin-3(2H)-yl)-N-isopropyl-2-methylpropanamide] | 0.06 to 0.24 µg/mL (≈ 0.0981 to 0.392 µM) | 0.25 to 1 µg/mL (≈ 0.409 to 1.63 µM) | 2 µg/mL (≈ 3.27 µM) | 2 µg/mL (≈ 3.27 µM) | > 50 µg/mL | > 50 µg/mL | – | – | – | – | – | – |
| COc1ccc(F)cc1[C@H](Cn1c(=O)n(C(C)(C)C(=O)N2CC=CC2)c(=O)c2c(C)c(-n3nccn3)sc21)OC1CCOCC1 [Compound I-62, (R)-3-(1-(2,5-dihydro-1H-pyrrol-1-yl)-2-methyl-1-oxopro-pan-2-yl)-1-(2-(5-fluoro-2-methoxyphenyl)-2-((tetrahydro-2H-pyran-4-yl)oxy)ethyl)-5-methyl-6-(2H-1,2,3-triazol-2-yl)thieno[2,3-d]pyrimidine-2,4(1H,3H)-dione] | – | – | – | – | – | – | 0.25 to 1 µg/mL (≈ 0.391 to 1.57 µM) | 0.25 to 1 µg/mL (≈ 0.391 to 1.57 µM) | 0.4 µg/mL (≈ 0.626 µM) | 0.4 µg/mL (≈ 0.626 µM) | > 50 µg/mL | > 50 µg/mL |
| COc1ccc(F)cc1[C@H](Cn1c(=O)n(C(C)(C)C(=O)N2CC=CC2)c(=O)c2c(C)c(-n3nccn3)sc21)OC[C@@H](C)O [Compound I-63, 3-(1-(2,5-dihydro-1H-pyrrol-1-yl)-2-methyl-1-oxopropan-2-yl)-1-((R)-2-(5-fluoro-2-methoxyphenyl)-2-((R)-2-hydroxypropoxy)ethyl)-5-methyl-6-(2H-1,2,3-triazol-2-yl)thieno[2,3-d]pyrimidine-2,4(1H,3H)-dione] | – | – | – | – | – | – | 0.25 to 1 µg/mL (≈ 0.408 to 1.63 µM) | > 4.01 µg/mL | 0.4 µg/mL (≈ 0.653 µM) | 0.4 µg/mL (≈ 0.653 µM) | > 50 µg/mL | > 50 µg/mL |
